Test results as given in ChEMBL document CHEMBL4138236, “Trisubstituted barbiturates and thiobarbiturates: Synthesis and biological evaluation as xanthine oxidase inhibitors, antioxidants, antibacterial and anti-proliferative agents” (Eur J Med Chem, 2018).

Test system: not listed separately
Test: Antioxidant activity assessed as DPPH radical scavenging activity at 30 uM after 60 mins by spectrophotometric method relative to control
Format: functional
Conditions: not given

SMILES | Activity
O=C1NC(=S)NC(=O)C1=Cc1ccccc1[N+](=O)[O-] | -0.23%
O=C1NC(=O)C(=CNc2ccccc2C(=O)O)C(=O)N1 | 1.98%
CN1C(=O)C(=CNc2cc([N+](=O)[O-])ccc2Cl)C(=O)N(C)C1=O | 0%
O=C1NC(=S)NC(=O)C1=CNc1ccccc1C(=O)O | -0.57%
CC(=O)C1C(=O)N(C)C(=O)N(C)C1=O | -9.91%
O=C1NC(=S)NC(=O)C1=CNc1ccccc1[N+](=O)[O-] | -11.8%
O=C(O)c1ccccc1NC=C1C(=O)N(c2ccccc2)C(=S)N(c2ccccc2)C1=O | -2.27%
NC(=O)NC=C1C(=O)NC(=S)NC1=O | 5.6%
COc1ccc(C=C2C(=O)NC(=O)NC2=O)cc1 | 2.63%
Oc1ncnc2[nH]ncc12 [ALLOPURINOL] | -5.41%

Test system: Pseudomonas aeruginosa
Test: Antibacterial activity against Pseudomonas aeruginosa ATCC 27853 after 24 hrs by broth microdilution method
Format: functional
Conditions: ATCC 27853, 24 h

SMILES | MIC
O=C1NC(=S)NC(=O)C1=Cc1ccccc1[N+](=O)[O-] | > 200 µM
O=C1NC(=O)C(=CNc2ccccc2C(=O)O)C(=O)N1 | > 200 µM
CN1C(=O)C(=CNc2cc([N+](=O)[O-])ccc2Cl)C(=O)N(C)C1=O | > 200 µM
O=C1NC(=S)NC(=O)C1=CNc1ccccc1C(=O)O | > 200 µM
CC(=O)C1C(=O)N(C)C(=O)N(C)C1=O | > 200 µM
O=C1NC(=S)NC(=O)C1=CNc1ccccc1[N+](=O)[O-] | > 200 µM
O=C(O)c1ccccc1NC=C1C(=O)N(c2ccccc2)C(=S)N(c2ccccc2)C1=O | > 200 µM
NC(=O)NC=C1C(=O)NC(=S)NC1=O | > 200 µM
COc1ccc(C=C2C(=O)NC(=O)NC2=O)cc1 | > 200 µM

Test system: MCF7
Test: Antiproliferative activity against human MCF7 cells at 30 uM after 72 hrs by MTT assay relative to control
Format: functional
Conditions: not given

SMILES | Activity
O=C1NC(=S)NC(=O)C1=Cc1ccccc1[N+](=O)[O-] | 56.35%
O=C1NC(=O)C(=CNc2ccccc2C(=O)O)C(=O)N1 | 54.9%
CN1C(=O)C(=CNc2cc([N+](=O)[O-])ccc2Cl)C(=O)N(C)C1=O | 50.07%
O=C1NC(=S)NC(=O)C1=CNc1ccccc1C(=O)O | 42.53%
CC(=O)C1C(=O)N(C)C(=O)N(C)C1=O | 84.11%
O=C1NC(=S)NC(=O)C1=CNc1ccccc1[N+](=O)[O-] | 80.23%
O=C(O)c1ccccc1NC=C1C(=O)N(c2ccccc2)C(=S)N(c2ccccc2)C1=O | 43.11%
NC(=O)NC=C1C(=O)NC(=S)NC1=O | 104.66%
COc1ccc(C=C2C(=O)NC(=O)NC2=O)cc1 | 78.75%

Test system: Bacillus cereus
Test: Antibacterial activity against Bacillus cereus ATCC 1178 after 24 hrs by broth microdilution method
Format: functional
Conditions: ATCC 1178, 24 h

SMILES | MIC
O=C1NC(=S)NC(=O)C1=Cc1ccccc1[N+](=O)[O-] | > 200 µM
O=C1NC(=O)C(=CNc2ccccc2C(=O)O)C(=O)N1 | > 200 µM
CN1C(=O)C(=CNc2cc([N+](=O)[O-])ccc2Cl)C(=O)N(C)C1=O | > 200 µM
O=C1NC(=S)NC(=O)C1=CNc1ccccc1C(=O)O | > 200 µM
CC(=O)C1C(=O)N(C)C(=O)N(C)C1=O | > 200 µM
O=C1NC(=S)NC(=O)C1=CNc1ccccc1[N+](=O)[O-] | > 200 µM
O=C(O)c1ccccc1NC=C1C(=O)N(c2ccccc2)C(=S)N(c2ccccc2)C1=O | > 200 µM
NC(=O)NC=C1C(=O)NC(=S)NC1=O | > 200 µM
COc1ccc(C=C2C(=O)NC(=O)NC2=O)cc1 | > 200 µM

Test system: Acinetobacter baumannii
Test: Antibacterial activity against Acinetobacter baumannii LMG 1025 after 24 hrs by broth microdilution method
Format: functional
Conditions: LMG 1025, 24 h

SMILES | MIC
O=C1NC(=S)NC(=O)C1=Cc1ccccc1[N+](=O)[O-] | > 200 µM
O=C1NC(=O)C(=CNc2ccccc2C(=O)O)C(=O)N1 | > 200 µM
CN1C(=O)C(=CNc2cc([N+](=O)[O-])ccc2Cl)C(=O)N(C)C1=O | > 200 µM
O=C1NC(=S)NC(=O)C1=CNc1ccccc1C(=O)O | > 200 µM
CC(=O)C1C(=O)N(C)C(=O)N(C)C1=O | > 200 µM
O=C1NC(=S)NC(=O)C1=CNc1ccccc1[N+](=O)[O-] | > 200 µM
O=C(O)c1ccccc1NC=C1C(=O)N(c2ccccc2)C(=S)N(c2ccccc2)C1=O | > 200 µM
NC(=O)NC=C1C(=O)NC(=S)NC1=O | > 200 µM
COc1ccc(C=C2C(=O)NC(=O)NC2=O)cc1 | > 200 µM

Test system: Klebsiella pneumoniae
Test: Antibacterial activity against Klebsiella pneumoniae ATCC 13883 after 24 hrs by broth microdilution method
Format: functional
Conditions: ATCC 13883, 24 h

SMILES | MIC
O=C1NC(=S)NC(=O)C1=Cc1ccccc1[N+](=O)[O-] | > 200 µM
O=C1NC(=O)C(=CNc2ccccc2C(=O)O)C(=O)N1 | > 200 µM
CN1C(=O)C(=CNc2cc([N+](=O)[O-])ccc2Cl)C(=O)N(C)C1=O | > 200 µM
O=C1NC(=S)NC(=O)C1=CNc1ccccc1C(=O)O | > 200 µM
CC(=O)C1C(=O)N(C)C(=O)N(C)C1=O | > 200 µM
O=C1NC(=S)NC(=O)C1=CNc1ccccc1[N+](=O)[O-] | > 200 µM
O=C(O)c1ccccc1NC=C1C(=O)N(c2ccccc2)C(=S)N(c2ccccc2)C1=O | > 200 µM
NC(=O)NC=C1C(=O)NC(=S)NC1=O | > 200 µM
COc1ccc(C=C2C(=O)NC(=O)NC2=O)cc1 | > 200 µM

Test system: Escherichia coli
Test: Antibacterial activity against Escherichia coli ATCC 25922 after 24 hrs by broth microdilution method
Format: functional
Conditions: ATCC 25922, 24 h

SMILES | MIC
O=C1NC(=S)NC(=O)C1=Cc1ccccc1[N+](=O)[O-] | > 200 µM
O=C1NC(=O)C(=CNc2ccccc2C(=O)O)C(=O)N1 | > 200 µM
CN1C(=O)C(=CNc2cc([N+](=O)[O-])ccc2Cl)C(=O)N(C)C1=O | > 200 µM
O=C1NC(=S)NC(=O)C1=CNc1ccccc1C(=O)O | > 200 µM
CC(=O)C1C(=O)N(C)C(=O)N(C)C1=O | > 200 µM
O=C1NC(=S)NC(=O)C1=CNc1ccccc1[N+](=O)[O-] | > 200 µM
O=C(O)c1ccccc1NC=C1C(=O)N(c2ccccc2)C(=S)N(c2ccccc2)C1=O | > 200 µM
NC(=O)NC=C1C(=O)NC(=S)NC1=O | > 200 µM
COc1ccc(C=C2C(=O)NC(=O)NC2=O)cc1 | > 200 µM

Test system: not listed separately
Test: Antioxidant activity assessed as DPPH radical scavenging activity at 30 uM after 20 mins by spectrophotometric method relative to control
Format: functional
Conditions: not given

SMILES | Activity
O=C1NC(=S)NC(=O)C1=Cc1ccccc1[N+](=O)[O-] | -2.2%
O=C1NC(=O)C(=CNc2ccccc2C(=O)O)C(=O)N1 | 1.75%
CN1C(=O)C(=CNc2cc([N+](=O)[O-])ccc2Cl)C(=O)N(C)C1=O | -0.82%
O=C1NC(=S)NC(=O)C1=CNc1ccccc1C(=O)O | -0.56%
CC(=O)C1C(=O)N(C)C(=O)N(C)C1=O | -9.14%
O=C1NC(=S)NC(=O)C1=CNc1ccccc1[N+](=O)[O-] | -12.5%
O=C(O)c1ccccc1NC=C1C(=O)N(c2ccccc2)C(=S)N(c2ccccc2)C1=O | -2.45%
NC(=O)NC=C1C(=O)NC(=S)NC1=O | 5.26%
COc1ccc(C=C2C(=O)NC(=O)NC2=O)cc1 | -0.97%
Oc1ncnc2[nH]ncc12 [ALLOPURINOL] | -6.02%

Test system: Staphylococcus aureus
Test: Antibacterial activity against Staphylococcus aureus ATCC 25923 after 24 hrs by broth microdilution method
Format: functional
Conditions: ATCC 25923, 24 h

SMILES | MIC
O=C1NC(=S)NC(=O)C1=Cc1ccccc1[N+](=O)[O-] | > 200 µM
O=C1NC(=O)C(=CNc2ccccc2C(=O)O)C(=O)N1 | > 200 µM
CN1C(=O)C(=CNc2cc([N+](=O)[O-])ccc2Cl)C(=O)N(C)C1=O | > 200 µM
O=C1NC(=S)NC(=O)C1=CNc1ccccc1C(=O)O | > 200 µM
CC(=O)C1C(=O)N(C)C(=O)N(C)C1=O | > 200 µM
O=C1NC(=S)NC(=O)C1=CNc1ccccc1[N+](=O)[O-] | > 200 µM
O=C(O)c1ccccc1NC=C1C(=O)N(c2ccccc2)C(=S)N(c2ccccc2)C1=O | > 200 µM
NC(=O)NC=C1C(=O)NC(=S)NC1=O | > 200 µM
COc1ccc(C=C2C(=O)NC(=O)NC2=O)cc1 | > 200 µM

Test system: Salmonella typhimurium
Test: Antibacterial activity against Salmonella typhimurium ATCC 13311 after 24 hrs by broth microdilution method
Format: functional, Salmonella enterica subsp. enterica serovar Typhimurium
Conditions: Salmonella enterica, ATCC 13311, 24 h

SMILES | MIC
O=C1NC(=S)NC(=O)C1=Cc1ccccc1[N+](=O)[O-] | > 200 µM
O=C1NC(=O)C(=CNc2ccccc2C(=O)O)C(=O)N1 | > 200 µM
CN1C(=O)C(=CNc2cc([N+](=O)[O-])ccc2Cl)C(=O)N(C)C1=O | > 200 µM
O=C1NC(=S)NC(=O)C1=CNc1ccccc1C(=O)O | > 200 µM
CC(=O)C1C(=O)N(C)C(=O)N(C)C1=O | > 200 µM
O=C1NC(=S)NC(=O)C1=CNc1ccccc1[N+](=O)[O-] | > 200 µM
O=C(O)c1ccccc1NC=C1C(=O)N(c2ccccc2)C(=S)N(c2ccccc2)C1=O | > 200 µM
NC(=O)NC=C1C(=O)NC(=S)NC1=O | > 200 µM
COc1ccc(C=C2C(=O)NC(=O)NC2=O)cc1 | > 200 µM

Test system: NHDF
Test: Antiproliferative activity against NHDF at 30 uM after 72 hrs by MTT assay relative to control
Format: cell-based
Conditions: human

SMILES | Activity
O=C1NC(=S)NC(=O)C1=Cc1ccccc1[N+](=O)[O-] | 81.31%
O=C1NC(=O)C(=CNc2ccccc2C(=O)O)C(=O)N1 | 84.62%
CN1C(=O)C(=CNc2cc([N+](=O)[O-])ccc2Cl)C(=O)N(C)C1=O | 66.98%
O=C1NC(=S)NC(=O)C1=CNc1ccccc1C(=O)O | 79.11%
CC(=O)C1C(=O)N(C)C(=O)N(C)C1=O | 94.14%
O=C1NC(=S)NC(=O)C1=CNc1ccccc1[N+](=O)[O-] | 78.75%
O=C(O)c1ccccc1NC=C1C(=O)N(c2ccccc2)C(=S)N(c2ccccc2)C1=O | 82.24%
NC(=O)NC=C1C(=O)NC(=S)NC1=O | 74.57%
COc1ccc(C=C2C(=O)NC(=O)NC2=O)cc1 | 71.59%
